Data reported in the supplement of paper PMC11699113.
Where a name gives a salt, the structure may show the parent alone.

System: ED cells (E. derm NBM-6, ATCC CCL-57)
Assay: cell viability (ATP, CellTiter-Glo) relative to untreated control (fraction of control); higher = less cytotoxic

Nc1ccn([C@@H]2CS[C@H](CO)O2)c(=O)n1 [lamivudine]
cell viability
Conditions | 0.5 µM | 2 µM | 5 µM | 10 µM | 20 µM | 40 µM | 50 µM | 75 µM | 100 µM | 150 µM
incubation time: 1h | 1.04 | 1.02 | 1.03 | 1.03 | 1.02 | 1.01 | 1.01 | 1.02 | 0.997 | 0.979
incubation time: 24h | 1.02 | 1.03 | 1.03 | 1.03 | 1.03 | 1.03 | 1.02 | 1.03 | 1.03 | 1.04
incubation time: 72h | 1.03 | 1.04 | 1.05 | 1.04 | 1.06 | 1.05 | 1.04 | 1.04 | 1.04 | 1.02
incubation time: 144h | 1.03 | 1.03 | 1.04 | 1.04 | 1.04 | 1.04 | 1.03 | 1.04 | 1.03 | 1

Nc1nc(=O)n([C@@H]2CS[C@H](CO)O2)cc1F [emtricitabine]
cell viability
Conditions | 0.5 µM | 2 µM | 5 µM | 10 µM | 25 µM | 50 µM | 80 µM | 100 µM | 200 µM | 300 µM
incubation time: 1h | 0.999 | 0.996 | 1.01 | 1.01 | 0.998 | 1 | 1.01 | 1.01 | 0.998 | 1.01
incubation time: 24h | 0.998 | 1.02 | 1.02 | 1.04 | 1.04 | 1.03 | 1.03 | 1.03 | 1.01 | 1
incubation time: 72h | 1.03 | 1.05 | 1.05 | 1.05 | 1.05 | 1.04 | 1.04 | 1.03 | 0.999 | 0.999
incubation time: 144h | 1.03 | 1.05 | 1.06 | 1.06 | 1.06 | 1.05 | 1.04 | 1.05 | 1.05 | 1.02

Cc1cn([C@H]2C[C@H](N=[N+]=[N-])[C@@H](CO)O2)c(=O)[nH]c1=O [zidovudine]
cell viability
Conditions | 0.5 µM | 2 µM | 5 µM | 10 µM | 25 µM | 50 µM | 80 µM | 100 µM | 200 µM | 300 µM
incubation time: 1h | 1.05 | 1.06 | 1.05 | 1.04 | 1.02 | 1.04 | 1.04 | 1.04 | 1.03 | 1.02
incubation time: 24h | 1.06 | 1.05 | 1.02 | 1.02 | 1.02 | 1.05 | 0.981 | 0.98 | 1.04 | 0.958
incubation time: 72h | 1.07 | 1.07 | 1.09 | 1.09 | 1.08 | 1.09 | 1.07 | 1.08 | 1.09 | 1.08
incubation time: 144h | 1.01 | 1.03 | 1.03 | 1.03 | 1.04 | 1.03 | 1.03 | 1.04 | 1.06 | 1.06

COC(=O)N[C@H](C(=O)N[C@@H](Cc1ccccc1)[C@@H](O)CN(Cc1ccc(-c2ccccn2)cc1)NC(=O)[C@@H](NC(=O)OC)C(C)(C)C)C(C)(C)C [atazanavir]
cell viability
Conditions | 0.125 µM | 0.25 µM | 0.5 µM | 2 µM | 10 µM | 20 µM | 50 µM | 80 µM | 100 µM | 124 µM
incubation time: 1h | 1.05 | 1.05 | 1.05 | 1.06 | 1.06 | 1.04 | 1.03 | 1.01 | 1.02 | 1.02
incubation time: 24h | 1.07 | 1.08 | 1.07 | 1.07 | 1.06 | 1.06 | 1.03 | 0.979 | 0.941 | 0.798
incubation time: 72h | 1.09 | 1.12 | 1.1 | 1.1 | 1.13 | 1.12 | 1.09 | 0.802 | 0.416 | 0.0698
incubation time: 144h | 1.02 | 1.05 | 1.03 | 1.03 | 1.07 | 1.07 | 1.04 | 0.554 | 0.0524 | 0.00492

Cc1nnc(C(=O)NC(C)(C)c2nc(C(=O)NCc3ccc(F)cc3)c(O)c(=O)n2C)o1 [raltegravir]
cell viability
Conditions | 0.5 µM | 2 µM | 5 µM | 10 µM | 25 µM | 50 µM | 80 µM | 100 µM | 200 µM | 300 µM
incubation time: 1h | 1.07 | 1.07 | 1.07 | 1.08 | 1.07 | 1.06 | 1.05 | 1.07 | 1.06 | 1.06
incubation time: 24h | 1.02 | 1.02 | 1.02 | 1.03 | 1.02 | 1.01 | 0.983 | 0.999 | 0.982 | 0.963
incubation time: 72h | 1.03 | 1.05 | 1.04 | 1.04 | 1.04 | 1.05 | 1.01 | 1.02 | 0.992 | 0.963
incubation time: 144h | 0.994 | 0.999 | 1.03 | 1.03 | 1.04 | 1.04 | 1.03 | 1.02 | 0.991 | 0.955

CC(C)OC(=O)OCOP(=O)(CO[C@H](C)Cn1cnc2c(N)ncnc21)OCOC(=O)OC(C)C [tenofovir disoproxil fumarate]
cell viability
Conditions | 0.5 µM | 2 µM | 5 µM | 10 µM | 20 µM | 40 µM | 50 µM | 75 µM | 100 µM | 150 µM
incubation time: 1h | 1.01 | 1.01 | 1.02 | 1.02 | 1.01 | 0.999 | 1 | 1 | 0.999 | 0.988
incubation time: 24h | 1.02 | 1.01 | 1 | 0.98 | 0.95 | 0.89 | 0.855 | 0.795 | 0.721 | 0.613
incubation time: 72h | 1 | 0.992 | 0.947 | 0.898 | 0.836 | 0.75 | 0.708 | 0.643 | 0.643 | 0.545
incubation time: 144h | 1.02 | 0.993 | 0.941 | 0.877 | 0.833 | 0.766 | 0.737 | 0.662 | 0.624 | 0.527

O=C(NCc1c(F)cc(F)cc1F)c1cn2c(c(O)c1=O)C(=O)N1[C@H]3CC[C@H](C3)O[C@@H]1C2 [bictegravir]
cell viability
Conditions | 0.06 µM | 0.125 µM | 0.325 µM | 2 µM | 5 µM | 10 µM | 20 µM | 30 µM | 42 µM | concentration (µM): C04 (printed 10, out of sequence, likely typo)
incubation time: 1h | 1 | 0.997 | 0.994 | 0.995 | 0.987 | 0.99 | 0.993 | 0.994 | 0.98 | 1
incubation time: 24h | 1.01 | 0.998 | 1.01 | 1.01 | 1.02 | 1.01 | 1.03 | 1.01 | 1 | 1.01
incubation time: 72h | 1.07 | 1.09 | 1.1 | 1.1 | 1.11 | 1.11 | 1.08 | 1.05 | 0.997 | 1.09
incubation time: 144h | 1.07 | 1.06 | 1.07 | 1.06 | 1.06 | 1.05 | 1.01 | 0.972 | 0.952 | 1.07
